Measured values taken from PubChem BioAssay AID2060889 (Molecular Pharmacology Branch, DTP, NCI, 2025).

Tested on: LG0567-F671-PDC complex spheroids viability
Assay: Anticancer human tumor LG0567-F671-PDC patient-derived lung adenocarcinoma cell line growth inhibition [RAS]
Conditions: for IC50: curve of first compound; for viability, T/C: stronger effect = lower value
Outline: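 Tumour cells grown as complex spheroids with HUVEC endothelial cells and mesenchymal stem cells, treated with RAS pathway inhibitor combinations. Each agent spans half-log steps from near clinical Cmax, or 10 microM where Cmax is unknown.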

[1] = second compound 0.000949 µM, first compound 0.0316 µM
[2] = second compound 0.000949 µM, first compound 0.1 µM
[3] = second compound 0.003 µM, first compound 0.0316 µM
[4] = second compound 0.003 µM, first compound 0.1 µM
[5] = second compound 0.00949 µM, first compound 0.0316 µM
[6] = second compound 0.00949 µM, first compound 0.1 µM
[7] = second compound 0.03 µM, first compound 0.0316 µM
[8] = second compound 0.03 µM, first compound 0.1 µM
[9] = second compound 0.0949 µM, first compound 0.0316 µM
[10] = second compound 0.0949 µM, first compound 0.1 µM
[11] = second compound 0.3 µM, first compound 0.0316 µM
[12] = second compound 0.3 µM, first compound 0.1 µM
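Note: spheroids exposed to compound for seven days before readout.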
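Throughout, for IC50: luminescence signal used as a proxy for viable cells.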

CC(C)n1nc(-c2ccc3oc(N)nc3c2)c2c(N)ncnc21 + CCn1c(-c2cccnc2C(C)OC)c2c3cc(ccc31)N1CCOC(CC(NC(=O)C(C(C)C)N(C)C(=O)C3(F)CCN(C(=O)C#CC(C)(C)N(C)C)CC3)C(=O)N3CCCC(N3)C(=O)OCC(C)(C)C2)C1
IC50 (second compound 0.000949 µM): < 0.316 nM | IC50 (second compound 0.003 µM): < 0.316 nM | IC50 (second compound 0.00949 µM): < 0.316 nM | IC50 (second compound 0.03 µM): < 0.316 nM | IC50 (second compound 0.0949 µM): < 0.316 nM | IC50 (second compound 0.3 µM): < 0.316 nM | viability, T/C (second compound 0.000949 µM, first compound 0.000316 µM): 14.9% | viability, T/C (second compound 0.000949 µM, first compound 0.001 µM): 14.4% | viability, T/C (second compound 0.000949 µM, first compound 0.00316 µM): 12.2% | viability, T/C (second compound 0.000949 µM, first compound 0.01 µM): 9.49% | viability, T/C [1]: 8.53% | viability, T/C [2]: 14.7% | viability, T/C (second compound 0.003 µM, first compound 0.000316 µM): 15.6% | viability, T/C (second compound 0.003 µM, first compound 0.001 µM): 12.4% | viability, T/C (second compound 0.003 µM, first compound 0.00316 µM): 12.5% | viability, T/C (second compound 0.003 µM, first compound 0.01 µM): 10.2% | viability, T/C [3]: 8.31% | viability, T/C [4]: 13.6% | viability, T/C (second compound 0.00949 µM, first compound 0.000316 µM): 13.3% | viability, T/C (second compound 0.00949 µM, first compound 0.001 µM): 13.2% | viability, T/C (second compound 0.00949 µM, first compound 0.00316 µM): 13.3% | viability, T/C (second compound 0.00949 µM, first compound 0.01 µM): 10.2% | viability, T/C [5]: 7.68% | viability, T/C [6]: 12.6% | viability, T/C (second compound 0.03 µM, first compound 0.000316 µM): 12% | viability, T/C (second compound 0.03 µM, first compound 0.001 µM): 14% | viability, T/C (second compound 0.03 µM, first compound 0.00316 µM): 11% | viability, T/C (second compound 0.03 µM, first compound 0.01 µM): 9.46% | viability, T/C [7]: 7.2% | viability, T/C [8]: 11.5% | viability, T/C (second compound 0.0949 µM, first compound 0.000316 µM): 11.1% | viability, T/C (second compound 0.0949 µM, first compound 0.001 µM): 10.9% | viability, T/C (second compound 0.0949 µM, first compound 0.00316 µM): 9.2% | viability, T/C (second compound 0.0949 µM, first compound 0.01 µM): 7.52% | viability, T/C [9]: 5.8% | viability, T/C [10]: 10.4% | viability, T/C (second compound 0.3 µM, first compound 0.000316 µM): 9.46% | viability, T/C (second compound 0.3 µM, first compound 0.001 µM): 8.59% | viability, T/C (second compound 0.3 µM, first compound 0.00316 µM): 8.57% | viability, T/C (second compound 0.3 µM, first compound 0.01 µM): 7.61% | viability, T/C [11]: 4.68% | viability, T/C [12]: 8.47%

O=C(c1ccc(F)c(F)c1Nc1ccc(I)cc1F)N1CC(O)([C@@H]2CCCCN2)C1 + C#Cc1c(F)ccc2cc(O)cc(-c3ncc4c(N5CC6CCC(C5)N6)nc(OCC56CCCN5CC(F)C6)nc4c3F)c12
IC50 (second compound 0.0316 µM): 13.6 nM | IC50 (second compound 0.1 µM): 8.46 nM | IC50 (second compound 0.316 µM): 5.19 nM | IC50 (second compound 1 µM): < 3.16 nM | IC50 (second compound 3.16 µM): < 3.16 nM | IC50 (second compound 10 µM): < 3.16 nM | viability, T/C (second compound 0.0316 µM, first compound 0.00316 µM): 80.2% | viability, T/C (second compound 0.0316 µM, first compound 0.01 µM): 53.4% | viability, T/C (second compound 0.0316 µM, first compound 0.0316 µM): 37% | viability, T/C (second compound 0.0316 µM, first compound 0.1 µM): 23% | viability, T/C (second compound 0.0316 µM, first compound 0.316 µM): 10.1% | viability, T/C (second compound 0.0316 µM, first compound 1 µM): 3.93% | viability, T/C (second compound 0.1 µM, first compound 0.00316 µM): 64.2% | viability, T/C (second compound 0.1 µM, first compound 0.01 µM): 45.9% | viability, T/C (second compound 0.1 µM, first compound 0.0316 µM): 35.4% | viability, T/C (second compound 0.1 µM, first compound 0.1 µM): 19.2% | viability, T/C (second compound 0.1 µM, first compound 0.316 µM): 10.7% | viability, T/C (second compound 0.1 µM, first compound 1 µM): 3.38% | viability, T/C (second compound 0.316 µM, first compound 0.00316 µM): 52.8% | viability, T/C (second compound 0.316 µM, first compound 0.01 µM): 46.8% | viability, T/C (second compound 0.316 µM, first compound 0.0316 µM): 30.7% | viability, T/C (second compound 0.316 µM, first compound 0.1 µM): 17.1% | viability, T/C (second compound 0.316 µM, first compound 0.316 µM): 9.98% | viability, T/C (second compound 0.316 µM, first compound 1 µM): 3.87% | viability, T/C (second compound 1 µM, first compound 0.00316 µM): 34.5% | viability, T/C (second compound 1 µM, first compound 0.01 µM): 28% | viability, T/C (second compound 1 µM, first compound 0.0316 µM): 21.3% | viability, T/C (second compound 1 µM, first compound 0.1 µM): 12.1% | viability, T/C (second compound 1 µM, first compound 0.316 µM): 6.87% | viability, T/C (second compound 1 µM, first compound 1 µM): 3.06% | viability, T/C (second compound 3.16 µM, first compound 0.00316 µM): 17.3% | viability, T/C (second compound 3.16 µM, first compound 0.01 µM): 14.1% | viability, T/C (second compound 3.16 µM, first compound 0.0316 µM): 16.4% | viability, T/C (second compound 3.16 µM, first compound 0.1 µM): 7.89% | viability, T/C (second compound 3.16 µM, first compound 0.316 µM): 3.15% | viability, T/C (second compound 3.16 µM, first compound 1 µM): 2.12% | viability, T/C (second compound 10 µM, first compound 0.00316 µM): 10.5% | viability, T/C (second compound 10 µM, first compound 0.01 µM): 7.59% | viability, T/C (second compound 10 µM, first compound 0.0316 µM): 5.41% | viability, T/C (second compound 10 µM, first compound 0.1 µM): 2.84% | viability, T/C (second compound 10 µM, first compound 0.316 µM): 1.91% | viability, T/C (second compound 10 µM, first compound 1 µM): 1.49%

C[C@@H](NC(=O)c1ncnc(N)c1Cl)c1ncc(C(=O)Nc2cc(C(F)(F)F)c(Cl)cn2)s1 + CCn1c(-c2cc(N3CCN(C)CC3)cnc2C(C)OC)c2c3cc(ccc31)-c1csc(n1)CC(NC(=O)C1CC1C)C(=O)N1CCCC(N1)C(=O)OCC(C)(C)C2
IC50 (second compound 0.000949 µM): < 31.6 nM | IC50 (second compound 0.003 µM): < 31.6 nM | IC50 (second compound 0.00949 µM): < 31.6 nM | IC50 (second compound 0.03 µM): < 31.6 nM | IC50 (second compound 0.0949 µM): < 31.6 nM | IC50 (second compound 0.3 µM): < 31.6 nM | viability, T/C [1]: 30.9% | viability, T/C [2]: 37.5% | viability, T/C (second compound 0.000949 µM, first compound 0.316 µM): 43.4% | viability, T/C (second compound 0.000949 µM, first compound 1 µM): 39.1% | viability, T/C (second compound 0.000949 µM, first compound 3.16 µM): 40.3% | viability, T/C (second compound 0.000949 µM, first compound 10 µM): 35.3% | viability, T/C [3]: 19.7% | viability, T/C [4]: 18.3% | viability, T/C (second compound 0.003 µM, first compound 0.316 µM): 19.9% | viability, T/C (second compound 0.003 µM, first compound 1 µM): 22.7% | viability, T/C (second compound 0.003 µM, first compound 3.16 µM): 24.5% | viability, T/C (second compound 0.003 µM, first compound 10 µM): 26.4% | viability, T/C [5]: 7.34% | viability, T/C [6]: 8.73% | viability, T/C (second compound 0.00949 µM, first compound 0.316 µM): 10.4% | viability, T/C (second compound 0.00949 µM, first compound 1 µM): 11.1% | viability, T/C (second compound 0.00949 µM, first compound 3.16 µM): 13.5% | viability, T/C (second compound 0.00949 µM, first compound 10 µM): 12.6% | viability, T/C [7]: 5.32% | viability, T/C [8]: 5.26% | viability, T/C (second compound 0.03 µM, first compound 0.316 µM): 5.82% | viability, T/C (second compound 0.03 µM, first compound 1 µM): 8.15% | viability, T/C (second compound 0.03 µM, first compound 3.16 µM): 8.79% | viability, T/C (second compound 0.03 µM, first compound 10 µM): 9.05% | viability, T/C [9]: 4.43% | viability, T/C [10]: 3.63% | viability, T/C (second compound 0.0949 µM, first compound 0.316 µM): 3.94% | viability, T/C (second compound 0.0949 µM, first compound 1 µM): 5.56% | viability, T/C (second compound 0.0949 µM, first compound 3.16 µM): 5.9% | viability, T/C (second compound 0.0949 µM, first compound 10 µM): 7.14% | viability, T/C [11]: 3.16% | viability, T/C [12]: 4.04% | viability, T/C (second compound 0.3 µM, first compound 0.316 µM): 3.86% | viability, T/C (second compound 0.3 µM, first compound 1 µM): 4.35% | viability, T/C (second compound 0.3 µM, first compound 3.16 µM): 5.96% | viability, T/C (second compound 0.3 µM, first compound 10 µM): 5.33%
